{
  "source": "patent US11834424B2",
  "about": "“Compounds useful as chaperone-mediated autophagy modulators” (ALBERT EINSTEIN COLLEGE OF MEDICINE, priority 2018, dated 2023)",
  "system": "chaperone-mediated autophagy (CMA) in NIH 3T3 fibroblasts",
  "assay": "Photoswitchable KFERQ-Dendra CMA reporter assay in NIH 3T3 fibroblasts",
  "format": "cell-based",
  "description": "The photoactivatable CMA reporter assay was constructed by inserting a sequence of 21 amino acid of Ribonuclease A bearing the CMA-targeting motif in the N-terminus multicloning site of the photoactivatable protein mCherryl or the photoswitchable protein Dendra 2.\nNIH 3T3 fibroblasts were stably transduced with a photoconvertible CMA reporter, KFERQ-Dendra. were photoswitched by exposure to a […] (constant current) LED (Norlux, 405 nm) for 10 minutes and at the desired times fixed in 3% formaldehyde. Test cells were exposed to the indicated concentrations of the compounds for 12 hours (FIG. 3A) or 24 hours (FIG. 3B). Cells were imaged using high content microscopy (Operetta, Perkin Elmer) or by capturing images with an Axiovert 200 fluorescence microscope (Zeiss) with apotome and equipped with a 63/1.4 NA oil objective lens and red (ex. 570/30 nm, em. 615/30 nm), cyan (ex. 365/50 nm and em. 530/45 nm) and green (ex. 475/40 nm and em. 535/45 nm) filter sets (Chroma). Images were acquired with a high-resolution CCD camera after optical sectioning through the apotome. CMA activity measured as the average number of fluorescent puncta (CMA active lysosomes) per cell. Values are expressed relative to values in untreated cells that were assigned an arbitrary value of 1 and are mean of >2,500 cells counted per condition. The S.D. in all instances was <0.01% mean value. Table 2 provides a comparison of compounds CA39.1 and its comparative example CA39 and CA77.01 and its comparative example CA77.",
  "data": [
    {"molecule": "CC(=O)Nc1ccc(-c2cnc3cc(Cl)ccc3n2)cc1", "note": "[CA77.1, N-(4-(6-chloroquinoxalin-2-yl)phenyl)acetamide]", "values": [
      {"measurement": "CMA activity (fluorescent puncta per cell, relative to untreated cells = 1)", "setting": "Time 5", "value": 2.53},
      {"measurement": "CMA activity (fluorescent puncta per cell, relative to untreated cells = 1)", "setting": "Time 10", "value": 3.365},
      {"measurement": "CMA activity (fluorescent puncta per cell, relative to untreated cells = 1)", "setting": "Time 20", "value": 5.858},
      {"measurement": "CMA activity (fluorescent puncta per cell, relative to untreated cells = 1)", "setting": "Time 30", "value": 5.889}
    ]},
    {"molecule": "CC(=O)Nc1ccc(C2=Nc3ccc(Cl)cc3OC2)cc1", "note": "[CA77, reference compound]", "values": [
      {"measurement": "CMA activity (fluorescent puncta per cell, relative to untreated cells = 1)", "setting": "Time 5", "value": 2.667},
      {"measurement": "CMA activity (fluorescent puncta per cell, relative to untreated cells = 1)", "setting": "Time 10", "value": 3.331},
      {"measurement": "CMA activity (fluorescent puncta per cell, relative to untreated cells = 1)", "setting": "Time 20", "value": 5.005},
      {"measurement": "CMA activity (fluorescent puncta per cell, relative to untreated cells = 1)", "setting": "Time 30", "value": 5.471}
    ]}
  ]
}
